The values below are quoted from earlier work in patent US6491617B1, “Medical devices that resist restenosis” (St. Jude Medical, Inc., priority 1999, dated 2002).

For the data set the following is noted: nitric oxide-releasing agent, test system not stated.

On to `NCCCNCCCCNCCCN` [Spermine, H2N(CH2)3NH2^+(CH2)4N[NONO]^−(CH2)3NH2], for which the IC50 (read-out: IC-50 concentration, i.e., a concentration at 50 percent effectiveness) is 19.7 nM.

Take NaO[NONO]Na [nitro percide]: the effective concentration was 25 nM.
